Experimental data taken from patent publication US20250026748A1, “N-(5-SUBSTITUTED-[(1,3,4-THIADIAZOLYL) OR (THIAZOLYL)])(SUBSTITUTED)CARBOXAMIDE COMPOUNDS AND USE THEREOF FOR INHIBITING HUMAN POLYMERASE THETA” (Repare Therapeutics Inc., priority 2021, published 2025).

biological target: PolQ ATPase enzyme (1-894) (Homo sapiens (Human), UniProt O75417); experiment: Polθ ATPase enzymatic assay (0.5 nM enzyme concentration), ADP-Glo; type: biochemical; conditions: average IC50; 0.5 nM PolQ ATPase enzyme (1-894)
Protocol: PolQ ATPase enzyme (1-894) at 0.5 nM is incubated with a 10-point concentration response of inhibitors for 15 min at rt in the following buffer: 50 mM Tris Cl pH 7.5, 10% glycerol, 5 mM DTT, 10 mM MgCl2, 0.1 mg/ml BSA. Following pre-incubation with inhibitors, DNA (Fork C) at 20 nM and ATP at 100 μM are added to start the reaction. Enzymatic reaction proceeds at rt for 180 min ATP consumption is measured using the ADP-Glo assay from Promega. Luminescence is read on the Envision and IC50 are determined using the variable slope 4-parameters equation.
Oligos are annealed by heating at 9500 for 5 min in the following buffer (10 mM Tris-HCl pH7.5, 50 mM NaCl, 1 mM EDTA) and cooled to rt. […]

PolQ ATPase enzyme (1-894), sequence (O75417 1-894): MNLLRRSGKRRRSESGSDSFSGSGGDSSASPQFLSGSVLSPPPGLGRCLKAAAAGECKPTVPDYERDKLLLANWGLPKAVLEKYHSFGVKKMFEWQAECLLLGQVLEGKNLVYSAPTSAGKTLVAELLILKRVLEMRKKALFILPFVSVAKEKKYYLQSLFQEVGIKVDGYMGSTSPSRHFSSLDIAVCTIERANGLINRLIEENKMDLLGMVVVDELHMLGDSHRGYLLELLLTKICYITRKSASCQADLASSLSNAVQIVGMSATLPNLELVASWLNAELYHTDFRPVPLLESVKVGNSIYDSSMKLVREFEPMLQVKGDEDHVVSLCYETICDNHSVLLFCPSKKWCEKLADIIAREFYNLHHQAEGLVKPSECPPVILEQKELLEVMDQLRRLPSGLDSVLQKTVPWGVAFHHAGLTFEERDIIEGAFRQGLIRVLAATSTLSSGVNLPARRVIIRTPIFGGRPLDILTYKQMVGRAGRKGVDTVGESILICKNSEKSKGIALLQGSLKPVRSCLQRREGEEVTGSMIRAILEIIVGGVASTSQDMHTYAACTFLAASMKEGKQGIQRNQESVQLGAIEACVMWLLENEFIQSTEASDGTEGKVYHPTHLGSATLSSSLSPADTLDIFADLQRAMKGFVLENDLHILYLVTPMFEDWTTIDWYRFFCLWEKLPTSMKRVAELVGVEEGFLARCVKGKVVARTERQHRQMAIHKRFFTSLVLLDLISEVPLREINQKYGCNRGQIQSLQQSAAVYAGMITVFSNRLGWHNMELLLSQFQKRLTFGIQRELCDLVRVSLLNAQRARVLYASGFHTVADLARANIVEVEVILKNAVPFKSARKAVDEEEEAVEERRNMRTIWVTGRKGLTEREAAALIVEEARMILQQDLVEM

Structure (SMILES)	IC50 [nM]
COc1cnc(C(F)F)cc1-c1cc(N2CCNCC2=O)ccc1C(=O)Nc1nnc(C#CC2CC2)s1 [Compound 143]	< 0.25
COc1cnc(C(F)F)cc1-c1cc(N2CCN(C(=O)OC(C)(C)C)CC2=O)ccc1C(=O)Nc1nnc(C#CC2CC2)s1 [Compound 144]	0.26
COc1cnc(C(F)F)cc1-c1cc(C#CC2CCCOC2)ncc1C(=O)Nc1nnc(C#Cc2cc(C)[nH]n2)s1 (stereo not shown) [Compound 146]	< 0.25
COc1cnc(C(F)F)cc1-c1cc(Nc2nnc(C)o2)ccc1C(=O)Nc1nnc(C#CC2CC2)s1 [Compound 152]	1.2
COc1cnc(C(F)F)cc1-c1cc(-c2nnc(C)o2)ccc1C(=O)Nc1nnc(C#Cc2cc(C)[nH]n2)s1 [Compound 153]	< 0.25
C#C[C@@H]1CC1c1nnc(NC(=O)c2cnc(-c3ccn(C)n3)cc2-c2cc(C(F)F)ncc2OC)s1 (stereo partly shown) [Compound 154]	< 0.25
COc1cnc(C(F)F)cc1-c1cc(-c2ccn(C)n2)cnc1C(=O)Nc1nnc(C#CC2CC2)s1 [Compound 156]	1.1
COc1cnc(C(F)F)cc1-c1cc(-c2ccn(C)n2)ncc1C(=O)Nc1nc(C)c(C#CC2CC2)s1 [Compound 157]	115
COc1cnc(C(F)F)cc1-c1cc(N2CCOC3(CC3)C2=O)ncc1C(=O)Nc1nnc(C#CC2CC2)s1 [Compound 158]	< 0.25
COc1cnc(C(F)F)cc1-c1cc(-c2ccn(C)n2)ncc1C(=O)Nc1nnc(C#Cc2cc(C)[nH]n2)s1 [Compound 161]	< 0.25
COc1cnc(C(F)F)cc1-c1cc(-n2ccncc2=O)ccc1C(=O)Nc1nnc(C#CC2CC2)s1 [Compound 163]	< 0.25
COc1cnc(C(F)F)cc1-c1cc(-c2nnc(C)o2)ccc1C(=O)Nc1nc(C)c(C#CC2CC2)s1 [Compound 164]	289
COc1cnc(C(F)F)cc1-c1cc(Nc2ccn(C)n2)ccc1C(=O)Nc1nnc(C#CC2CC2)s1 [Compound 166]	0.52
COc1cnc(C(F)F)cc1-c1cc(-c2nnc(C)o2)ccc1C(=O)Nc1nnc(C2C[C@H]2c2ccc(C#N)cc2)s1 (stereo partly shown) [Compound 168]	0.34
COc1cnc(C(F)F)cc1-c1cc(N2CCO[C@H](C)C2=O)ncc1C(=O)Nc1nnc(C#CC2CC2)s1 [Compound 173]	0.41
COc1cnc(C(F)F)cc1-c1cc(N2CCO[C@@H](C)C2=O)ncc1C(=O)Nc1nnc(C#CC2CC2)s1 [Compound 174]	< 0.25

Structure (SMILES)	IC50 [nM]
COc1cnc(C(F)F)cc1-c1cc(Oc2ccn(C)n2)ncc1C(=O)Nc1nnc(C#CC2CC2)s1 [Compound 175]	0.51
COc1cnc(C(F)F)cc1-c1cc(N2CCOCC2=O)ncc1C(=O)Nc1nnc(C#Cc2ccc(Cl)cc2)s1 [Compound 176]	23
C#C[C@@H]1C[C@H]1c1nnc(NC(=O)c2ccc(N3CCOCC3=O)cc2-c2cc(C(F)F)ncc2OC)s1 [Compound 177]	0.39
COc1cnc(C(F)F)cc1-c1cc(OCc2ccn(C)n2)ncc1C(=O)Nc1nnc(C#CC2CC2)s1 [Compound 183]	0.49
COc1cnc(C(F)F)cc1-c1cc(-c2cnn(C3CCOCC3)c2)ccc1C(=O)Nc1nnc(C#CC2CC2)s1 [Compound 188]	1.9
COc1cnc(C(F)F)cc1-c1cc(CC(=O)N2CC(F)(F)C2)ccc1C(=O)Nc1nnc(C#CC2CC2)s1 [Compound 195]	< 0.25
COc1cnc(C(F)F)cc1-c1cc(C#Cc2cn[nH]c2)ncc1C(=O)Nc1nnc(C#CC2CC2)s1 [Compound 196]	< 0.25
COc1cnc(C(F)F)cc1-c1cc(C#CCN2CCNC2=O)ccc1C(=O)Nc1nnc(C#CC2CC2)s1 [Compound 197]	< 0.25
COc1cnc(C(F)F)cc1-c1cc(-c2cn(C)cn2)ccc1C(=O)Nc1nnc(C#CC2CC2)s1 [Compound 201]	< 0.25
COc1cnc(C(F)F)cc1-c1cc(-c2ccc(=O)n(C)c2)ccc1C(=O)Nc1nnc(C#CC2CC2)s1 [Compound 202]	0.29
COc1cnc(C(F)F)cc1-c1cc(CC(=O)N2CC(C)(O)C2)ccc1C(=O)Nc1nnc(C#CC2CC2)s1 [Compound 206]	< 0.25
O=C(Nc1ncc(C#CC2CC2)s1)c1cc(=O)n(Cc2ncco2)cc1-c1cc(C(F)F)ccc1Cl [Compound 207]	2.6
O=C(Nc1ncc(C#CC2CC2)s1)c1cc(=O)n(Cc2nccs2)cc1-c1cc(C(F)F)ccc1Cl [Compound 208]	14
COc1cnc(C(F)F)cc1-c1cc(C#CC2(C(=O)N(C)C)CC2)ncc1C(=O)Nc1nnc(C#CC2CC2)s1 [Compound 211]	< 0.25
COc1cnc(C(F)F)cc1-c1cc(N2CCCCC2=O)ccc1C(=O)Nc1nnc(C#CC2CC2)s1 [Compound 212]	< 0.25

More lines, now with the values ahead:

IC50 [nM]	Structure (SMILES)
< 0.25	COc1cnc(C(F)F)cc1-c1cc(-c2cc[nH]n2)ncc1C(=O)Nc1nnc(C#CC2CC2)s1 [Compound 145, N-(5-(cyclopropylethynyl)-1,3,4-thiadiazol-2-yl)-2′-(difluoromethyl)-5′-methoxy-6-(1H-pyrazol-3-yl)-[4,4′-bipyridine]-3-carboxamide]
0.31	COc1cnc(C(F)F)cc1-c1cc(OC[C@@H]2CCC(=O)N2C)ncc1C(=O)Nc1nnc(C#CC2CC2)s1 [Compound 147]
0.93	COc1cnc(C(F)F)cc1-c1cc(OC[C@@H]2CCOC2)ncc1C(=O)Nc1nnc(C#CC2CC2)s1 [Compound 148]
0.37	COc1cnc(C(F)F)cc1-c1cc(OC[C@H]2CCOC2)ncc1C(=O)Nc1nnc(C#CC2CC2)s1 [Compound 149]
< 0.25	COc1cnc(C(F)F)cc1-c1cc(OCC2CCOCC2)ncc1C(=O)Nc1nnc(C#CC2CC2)s1 [Compound 150, N-(5-(cyclopropylethynyl)-1,3,4-thiadiazol-2-yl)-2′-(difluoromethyl)-5′-methoxy-6-((tetrahydro-2H-pyran-4-yl)methoxy)-[4,4′-bipyridine]-3-carboxamide]
< 0.25	COc1cnc(C(F)F)cc1-c1cc(C#CC2(C)CCCO2)ncc1C(=O)Nc1nnc(C#CC2CC2)s1 (stereo not shown) [Compound 151]
0.79	COc1cnc(C(F)F)cc1-c1cc(NCCOCC(=O)O)ncc1C(=O)Nc1nnc(C#CC2CC2)s1 [Compound 159]
13	COc1cnc(C(F)F)cc1-c1cc(N2CC3(COC3)C2)ncc1C(=O)Nc1nnc(C#CC2CC2)s1 [Compound 162]
< 0.25	COc1cnc(C(F)F)cc1-c1cc(N2CCCOC2=O)ncc1C(=O)Nc1nnc(C#CC2CC2)s1 [Compound 167]
1.5	COc1cnc(C(F)F)cc1-c1cc(-c2cnccn2)ncc1C(=O)Nc1nnc(C#CC2CC2)s1 [Compound 172]
< 0.25	COc1cnc(C(F)F)cc1-c1cc(CC#N)ncc1C(=O)Nc1nnc(C#Cc2ccc(Cl)cc2)s1 [Compound 178]
1.6	COc1cnc(C(F)F)cc1-c1cc(CC(=O)N(C)C)ncc1C(=O)Nc1nc(C)c(C#CC2CC2)s1 [Compound 179]
4.6	COc1cnc(C(F)F)cc1-c1cc(OCC2CC2)ncc1C(=O)Nc1nnc(C#CC2CC2)s1 [Compound 180]
0.75	COc1cnc(C(F)F)cc1-c1cc(OCCOC(F)F)ncc1C(=O)Nc1nnc(C#CC2CC2)s1 [Compound 181]
1.2	COc1cnc(C(F)F)cc1-c1cc(OC2CCN(C)C2=O)ncc1C(=O)Nc1nnc(C#CC2CC2)s1 (stereo not shown) [Compound 182]
0.45	COc1cnc(C(F)F)cc1-c1cc(C#CC(C)(C)C#N)ncc1C(=O)Nc1nnc(C#CC2CC2)s1 [Compound 184]
< 0.25	COc1cnc(C(F)F)cc1-c1cc(C#Cc2cnn(C)c2)ncc1C(=O)Nc1nnc(C#CC2CC2)s1 [Compound 185]

IC50 [nM]	Structure (SMILES)
0.79	COc1cnc(C(F)F)cc1-c1cc(OC[C@H]2CCCO2)ncc1C(=O)Nc1nnc(C#CC2CC2)s1 [Compound 186]
0.91	COc1cnc(C(F)F)cc1-c1cc(-c2cn(C)cn2)ncc1C(=O)Nc1nnc(C#CC2CC2)s1 [Compound 187]
< 0.25	COc1cnc(C(F)F)cc1-c1cc(C#CCN2CCOC[C@H]2C)ncc1C(=O)Nc1nnc(C#CC2CC2)s1 [Compound 189]
5.8	C#C[C@H]1C[C@@H]1c1nnc(NC(=O)c2cnc(CC#N)cc2-c2cc(C(F)F)ncc2OC)s1 [Compound 190]
15	COc1cnc(C(F)F)cc1-c1cc(N2CCCC2=O)ncc1C(=O)Nc1ncc(C#CC2CC2)s1 [Compound 191]
0.33	COc1cnc(C(F)F)cc1-c1cc(N2CCCCC2=O)ncc1C(=O)Nc1nnc(C#CC2CC2)s1 [Compound 192]
2.5	COc1cnc(C(F)F)cc1-c1cc(CC#N)ccc1C(=O)Nc1ncc(C#CC2CC2)s1 [Compound 193]
0.61	COc1cnc(C(F)F)cc1-c1cc(N2CCN(C)CC2=O)ncc1C(=O)Nc1nnc(C#CC2CC2)s1 [Compound 194]
0.53	COc1cnc(C(F)F)cc1-c1cc(CC#N)ncc1C(=O)Nc1ncc(C#CC2CC2)s1 [Compound 198]
< 0.25	COc1cnc(C(F)F)cc1-c1cc(CC(=O)N(C)C)ncc1C(=O)Nc1ncc(C#CC2CC2)s1 [Compound 200]
2.9	COc1cnc(C(F)F)cc1-c1cc(N(C)C#N)ccc1C(=O)Nc1nnc(C#CC2CC2)s1 [Compound 203]
0.71	CNC(=O)Cc1ccc(C(=O)Nc2ncc(C#CC3CC3)s2)c(-c2cc(C(F)F)ncc2OC)c1 [Compound 204]
0.16	COc1cnc(C(F)F)cc1-c1cc(CC(=O)N2CC(C)(O)C2)ccc1C(=O)Nc1ncc(C#CC2CC2)s1 [Compound 205]
0.67	COc1cnc(C(F)F)cc1-c1cc(N2CCCCC2=O)ccc1C(=O)Nc1ncc(C#CC2CC2)s1 [Compound 209]
< 0.25	COc1cnc(C(F)F)cc1-c1cc(C#CC2(C(=O)N(C)C)CC2)ncc1C(=O)Nc1ncc(C#CC2CC2)s1 [Compound 210]
< 0.25	COc1cnc(C(F)F)cc1-c1cc(N2CCOCC2=O)ccc1C(=O)Nc1ncc(C#CC2CC2)s1 [Compound 213]
